From US20260297083A1, “SUBSTITUTED ACETYLENE COMPOUND DERIVATIVES AND THEIR PHARMACEUTICAL USE” (AVELOS THERAPEUTICS INC., priority 2023, published 2026)

What follows are compounds tested on DLD-1 BRCA2(−/−) Cell (assay: Cell viability assay (Resazurin) in DLD1-BRCA2 cells). Settings: Homo sapiens, DLD-1, 336 h, 14 days, 1,500 cells/well, final DMSO 1%.
Format: cell-based
How it was run: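 DLD1-BRCA2 KG cells seeded at 1,500/well (parental 600/well) in RPMI-1640 with 10% FBS, compound added after 4 h (1% DMSO), media replaced every 3-4 days over 14 days at 37° C. Viability read by resazurin (0.1 mg/ml, 4 h) fluorescence at Ex/Em 560/590 nm; IC50 fitted.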

`Cc1cc(C(F)(F)F)cc(N2[C@H](C(=O)N(CC#Cc3cncc(C(=O)N4CC5CCC(C4)O5)n3)c3ccc(F)c(C)c3)CCS2(=O)=O)n1` [Example 71, (3S)-N-(3-(6-(8-oxa-3-azabicyclo[3.2.1]octane-3-carbonyl)pyrazin-2-yl)prop-2-yn-1-yl)-N-(4-fluoro-3-methylphenyl)-2-(6-methyl-4-(trifluoromethyl)pyridin-2-yl)isothiazolidine-3-carboxamide 1,1-dioxide] and `Cc1cc(C(F)(F)F)cc(N2[C@H](C(=O)N(CC#Cc3cncc(C(=O)N4CC5CCC(C4)N5)n3)c3ccc(F)c(C)c3)CCS2(=O)=O)n1` [Example 73, (3S)-N-(3-(6-(3,8-diazabicyclo[3.2.1]octane-3-carbonyl)pyrazin-2-yl)prop-2-yn-1-yl)-N-(4-fluoro-3-methylphenyl)-2-(6-methyl-4-(trifluoromethyl)pyridin-2-yl)isothiazolidine-3-carboxamide 1,1-dioxide] cannot be ordered by IC50: under 1000 nM for the first, under 1000 nM for the second.

`Cc1cc(C(F)(F)F)cc(N2[C@H](C(=O)N(CC#Cc3cncc(C(=O)N4CCNCC4)n3)c3ccc(F)c(C)c3)CCS2(=O)=O)n1` [Example 72, (S)-N-(4-fluoro-3-methylphenyl)-2-(6-methyl-4-(trifluoromethyl)pyridin-2-yl)-N-(3-(6-(piperazine-1-carbonyl)pyrazin-2-yl)prop-2-yn-1-yl)isothiazolidine-3-carboxamide 1,1-dioxide] and `Cc1cc(C(F)(F)F)cc(N2[C@H](C(=O)N(CC#Cc3cncc(C(=O)N4C[C@H](C)N[C@@H](C)C4)n3)c3ccc(F)c(C)c3)CCS2(=O)=O)n1` [Example 74, (S)-N-(3-(6-((3S,5S)-3,5-dimethylpiperazine-1-carbonyl)pyrazin-2-yl)prop-2-yn-1-yl)-N-(4-fluoro-3-methylphenyl)-2-(6-methyl-4-(trifluoromethyl)pyridin-2-yl)isothiazolidine-3-carboxamide 1,1-dioxide] cannot be ordered by IC50: under 1000 nM for the first, under 1000 nM for the second.

`Cc1cc(C(F)(F)F)cc(N2[C@H](C(=O)N(CC#Cc3cc(N4CCOCC4)ncn3)c3ccc(F)c(C)c3)CCS2(=O)=O)n1` [Example 75, (S)-N-(4-fluoro-3-methylphenyl)-2-(6-methyl-4-(trifluoromethyl)pyridin-2-yl)-N-(3-(6-morpholinopyrimidin-4-yl)prop-2-yn-1-yl)isothiazolidine-3-carboxamide 1,1-dioxide] and `Cc1cc(C(F)(F)F)cc(N2[C@H](C(=O)N(CC#Cc3cnc(N4CCOCC4)nc3)c3ccc(F)c(C)c3)CCS2(=O)=O)n1` [Example 77, (S)-N-(4-fluoro-3-methylphenyl)-2-(6-methyl-4-(trifluoromethyl)pyridin-2-yl)-N-(3-(2-morpholinopyrimidin-5-yl)prop-2-yn-1-yl)isothiazolidine-3-carboxamide 1,1-dioxide] cannot be ordered by IC50: under 1000 nM for the first, under 1000 nM for the second.

`Cc1cc(C(F)(F)F)cc(N2[C@H](C(=O)N(CC#Cc3cc(N4CCOCC4)nc(C(F)(F)F)n3)c3ccc(F)c(C)c3)CCS2(=O)=O)n1` [Example 76, (S)-N-(4-fluoro-3-methylphenyl)-2-(6-methyl-4-(trifluoromethyl)pyridin-2-yl)-N-(3-(6-morpholino-2-(trifluoromethyl)pyrimidin-4-yl)prop-2-yn-1-yl)isothiazolidine-3-carboxamide 1,1-dioxide] and `Cc1cc(C(F)(F)F)cc(N2[C@H](C(=O)N(CC#Cc3cccc(N4CCOCC4)n3)c3ccc(F)c(C)c3)CCS2(=O)=O)n1` [Example 86, (S)-N-(4-fluoro-3-methylphenyl)-2-(6-methyl-4-(trifluoromethyl)pyridin-2-yl)-N-(3-(6-morpholinopyridin-2-yl)prop-2-yn-1-yl)isothiazolidine-3-carboxamide 1,1-dioxide] cannot be ordered by IC50: under 1000 nM for the first, under 1000 nM for the second.

`Cc1cc(C(F)(F)F)cc(N2[C@H](C(=O)N(CC#Cc3cnc(C(N)=O)nc3)c3ccc(F)c(C)c3)CCS2(=O)=O)n1` [Example 78, (S)-N-(3-(2-carbamoylpyrimidin-5-yl)prop-2-yn-1-yl)-N-(4-fluoro-3-methylphenyl)-2-(6-methyl-4-(trifluoromethyl)pyridin-2-yl)isothiazolidine-3-carboxamide 1,1-dioxide] and `Cc1cc(C(F)(F)F)cc(N2[C@H](C(=O)N(CC#Cc3ncc(C(N)=O)cn3)c3ccc(F)c(C)c3)CCS2(=O)=O)n1` [Example 81, (S)-N-(3-(5-carbamoylpyrimidin-2-yl)prop-2-yn-1-yl)-N-(4-fluoro-3-methylphenyl)-2-(6-methyl-4-(trifluoromethyl)pyridin-2-yl)isothiazolidine-3-carboxamide 1,1-dioxide] cannot be ordered by IC50: under 1000 nM for the first, under 1000 nM for the second.

`Cc1cc(C(F)(F)F)cc(N2[C@H](C(=O)N(CC#Cc3ncc(N4CCOCC4)cn3)c3ccc(F)c(C)c3)CCS2(=O)=O)n1` [Example 79, (S)-N-(4-fluoro-3-methylphenyl)-2-(6-methyl-4-(trifluoromethyl)pyridin-2-yl)-N-(3-(5-morpholinopyrimidin-2-yl)prop-2-yn-1-yl)isothiazolidine-3-carboxamide 1,1-dioxide] and `Cc1cc(C(F)(F)F)cc(N2[C@H](C(=O)N(CC#Cc3ccc(N4CCOCC4)cn3)c3ccc(F)c(C)c3)CCS2(=O)=O)n1` [Example 84, (S)-N-(4-fluoro-3-methylphenyl)-2-(6-methyl-4-(trifluoromethyl)pyridin-2-yl)-N-(3-(5-morpholinopyridin-2-yl)prop-2-yn-1-yl)isothiazolidine-3-carboxamide 1,1-dioxide] cannot be ordered by IC50: under 1000 nM for the first, under 1000 nM for the second.

`Cc1cc(C(F)(F)F)cc(N2[C@H](C(=O)N(CC#Cc3nccc(N4CCOCC4)n3)c3ccc(F)c(C)c3)CCS2(=O)=O)n1` [Example 80, (S)-N-(4-fluoro-3-methylphenyl)-2-(6-methyl-4-(trifluoromethyl)pyridin-2-yl)-N-(3-(4-morpholinopyrimidin-2-yl)prop-2-yn-1-yl)isothiazolidine-3-carboxamide 1,1-dioxide] and `Cc1cc(C(F)(F)F)cc(N2[C@H](C(=O)N(CC#Cc3ccc(N4CCOCC4)nc3)c3ccc(F)c(C)c3)CCS2(=O)=O)n1` [Example 85, (S)-N-(4-fluoro-3-methylphenyl)-2-(6-methyl-4-(trifluoromethyl)pyridin-2-yl)-N-(3-(6-morpholinopyridin-3-yl)prop-2-yn-1-yl)isothiazolidine-3-carboxamide 1,1-dioxide] cannot be ordered by IC50: under 1000 nM for the first, under 1000 nM for the second.

`Cc1cc(C(F)(F)F)cc(N2[C@H](C(=O)N(CC#Cc3ncc(C(=O)N4CCOCC4)cn3)c3ccc(F)c(C)c3)CCS2(=O)=O)n1` [Example 82, (S)-N-(4-fluoro-3-methylphenyl)-2-(6-methyl-4-(trifluoromethyl)pyridin-2-yl)-N-(3-(5-(morpholine-4-carbonyl)pyrimidin-2-yl)prop-2-yn-1-yl)isothiazolidine-3-carboxamide 1,1-dioxide] and `Cc1cc(C(F)(F)F)cc(N2[C@H](C(=O)N(CC#Cc3ncc(C(=O)N4C5CCC4COC5)cn3)c3ccc(F)c(C)c3)CCS2(=O)=O)n1` [Example 83, (3S)-N-(3-(5-(3-oxa-8-azabicyclo[3.2.1]octane-8-carbonyl)pyrimidin-2-yl)prop-2-yn-1-yl)-N-(4-fluoro-3-methylphenyl)-2-(6-methyl-4-(trifluoromethyl)pyridin-2-yl)isothiazolidine-3-carboxamide 1,1-dioxide] cannot be ordered by IC50: under 1000 nM for the first, under 1000 nM for the second.

`Cc1cc(C(F)(F)F)cc(N2[C@H](C(=O)N(CC#Cc3cccc(=O)[nH]3)c3ccc(F)c(C)c3)CCS2(=O)=O)n1` [Example 87, (S)-N-(4-fluoro-3-methylphenyl)-2-(6-methyl-4-(trifluoromethyl)pyridin-2-yl)-N-(3-(6-oxo-1,6-dihydropyridin-2-yl)prop-2-yn-1-yl)isothiazolidine-3-carboxamide 1,1-dioxide] and `Cc1cc(C(F)(F)F)cc(N2[C@H](C(=O)N(CC#Cc3cccc(=O)n3C)c3ccc(F)c(C)c3)CCS2(=O)=O)n1` [Example 92, (S)-N-(4-fluoro-3-methylphenyl)-2-(6-methyl-4-(trifluoromethyl)pyridin-2-yl)-N-(3-(1-methyl-6-oxo-1,6-dihydropyridin-2-yl)prop-2-yn-1-yl)isothiazolidine-3-carboxamide 1,1-dioxide] cannot be ordered by IC50: under 1000 nM for the first, under 1000 nM for the second.

`Cc1cc(C(F)(F)F)cc(N2[C@H](C(=O)N(CC#Cc3cccc(OC(C)C)n3)c3ccc(F)c(C)c3)CCS2(=O)=O)n1` [Example 88, (S)-N-(4-fluoro-3-methylphenyl)-N-(3-(6-isopropoxypyridin-2-yl)prop-2-yn-1-yl)-2-(6-methyl-4-(trifluoromethyl)pyridin-2-yl)isothiazolidine-3-carboxamide 1,1-dioxide] and `Cc1cc(C(F)(F)F)cc(N2[C@H](C(=O)N(CC#Cc3cccc(OC(F)F)n3)c3ccc(F)c(C)c3)CCS2(=O)=O)n1` [Example 89, (S)-N-(3-(6-(difluoromethoxy)pyridin-2-yl)prop-2-yn-1-yl)-N-(4-fluoro-3-methylphenyl)-2-(6-methyl-4-(trifluoromethyl)pyridin-2-yl)isothiazolidine-3-carboxamide 1,1-dioxide] fall in the same range of IC50: 1100 to 5000 nM for the first, 1100 to 5000 nM for the second.

`Cc1cc(C(F)(F)F)cc(N2[C@H](C(=O)N(CC#Cc3cc(C)c(F)c(C)n3)c3ccc(F)c(C)c3)CCS2(=O)=O)n1` [Example 90, (S)-N-(4-fluoro-3-methylphenyl)-N-(3-(5-fluoro-4,6-dimethylpyridin-2-yl)prop-2-yn-1-yl)-2-(6-methyl-4-(trifluoromethyl)pyridin-2-yl)isothiazolidine-3-carboxamide 1,1-dioxide] and `Cc1cc(C(F)(F)F)cc(N2[C@H](C(=O)N(CC#Cc3cc(C)c(N)c(C)n3)c3ccc(F)c(C)c3)CCS2(=O)=O)n1` [Example 91, (S)-N-(3-(5-amino-4,6-dimethylpyridin-2-yl)prop-2-yn-1-yl)-N-(4-fluoro-3-methylphenyl)-2-(6-methyl-4-(trifluoromethyl)pyridin-2-yl)isothiazolidine-3-carboxamide 1,1-dioxide] fall in the same range of IC50: 1100 to 5000 nM for the first, 1100 to 5000 nM for the second.
